Laboratory results as given in US8470594B2, “Methods for identifying agents that affect the survival of motor neurons” (President and Fellows of Harvard College, priority 2008, dated 2013).

B1: GMFb: glial maturation factor beta, shown to induce a pro-inflammatory state in astrocytes; from Peprotech (protein, UniProt Q9CQI3 2-142, looked up)
Glia maturation factor beta: SESLVVCDVAEDLVEKLRKFRFRKETHNAAIIMKIDKDERLVVLDEELEGVSPDELKDELPERQPRFIVYSYKYQHDDGRVSYPLCFIFSSPVGCKPEQQMMYAGSKNKLVQTAELTKVFEIRNTEDLTEEWLREKLGFFH
B2: Mcp2: cytokine over expressed in mutant glia; from Peprotech (protein, UniProt Q9Z121 24-97, looked up)
C-C motif chemokine 8: GPDKAPVTCCFHVLKLKIPLRVLKSYERINNIQCPMEAVVFQTKQGMSLCVDPTQKWVSEYMEILDQKSQILQP

Each molecule was assayed on Hb9::GFP human ES cell-derived motor neurons (assay: Survival of Hb9::GFP human ES cell-derived motor neurons in co-culture with non-transgenic (WT) glia). Details: non-transgenic (WT) mouse glia pretreated 1 day, 20 days of treatment; MCP2, Cxc17, Rantes 100 ng/ml; GMFb 250 ng/ml; PGD2 10 μM; Shh agonist 11M [sic]; n=3.
Format: cell-based
Experimental: (§1) Differentiation of human Embryonic Stem Cells into motor neurons. For differentiation into motor neurons, the cells were allowed to reach 80-90% confluency, washed once with PBS, and then incubated for 15 minutes at 37° C. in a solution of 1 g/L Collagenase IV (GIBCO) in DMEM-F12 (GIBCO).
After 24 hours, the cells had aggregated to form embryoid bodies (EBs), and the media was changed to remove debris by centrifuging the EBs and resuspending in fresh in human ES cell media without bFGF2 or plasmanate in low attachment 6-well plates. EBs were cultured as such for 13 more days, with half of the media changed every two days, and a complete media change every week. After 14 days, the EBs were induced toward a caudal and ventral identity using retinoic acid (1 μM, Sigma) and an agonist of the Shh signaling pathway (1 μM) in N2 media: 1:1 DMEM:F-12+Glutamate (Gibco), 10,000 units Penicillin and 1 mg/mL Streptomicin (Gibco), 1% N2 Supplement (Gibco), 0.2 mM ascorbic acid (Sigma-Aldrich), 0.16% D-(+)-Glucose (Sigma-Aldrich), BDNF (10 ng/ml, R&D Systems), for another 14 days. The EBs were then matured for a final 14 days in N2 media with GNDF (10 ng/mL, R&D Systems). After 42 days of differentiation, the EBs were dissociated. To dissociate the EBs, they were centrifuged at 1000 rpm for 5 min in a 15 ml falcon tube, and then washed once with PBS to eliminate residual media. The EBs were then incubated for 60 minutes at 37° C. in Earle's Balanced Salt Solution with 20 units of papain and 1000 units of Deoxyribonuclease I (Worthington Biochemical Corporation). EBs were triturated using a 2 mL serological pipette every 15-20 minutes during this incubation. When an almost single cell suspension was achieved, the cells were centrifuged for 5 minutes at 1000 RPM. The resulting cell pellet was washed once with PBS and then resuspended in N2 media with neurotrophic factors (GDNF, and BDNF (10 ng/ml, R&D Systems)). These cells were then counted and plated on Poly-D-Lysine/Laminin CultureSlides (BD biosciences) or on a layer of primary glial cells. Depending on the experiment, motor neurons or interneurons were counted 10 or 20 days after plating.
Primary Glial Cultures. P1-P3 mouse pups transgenic for SOD1G93A, SOD1WT or non-transgenic pups were sacrificed by using an approved method of euthanasia. Under a dissection microscope, the parenquima were isolated and the meninges were carefully stripped away with fine forceps. The tissue was then dissected into small pieces and transferred to a solution containing 12 ml of HBSS, 1.5 ml of trypsin (GIBCO) and 1% DNAse (Sigma) and incubated at 37° C. for 15 min, swirling the mixture periodically. The supernatant containing the dissociated cells was then collected and 3 ml of serum was added to inhibit trypsin activity.
The cells were then centrifuged at 1000 rpm for 5 min, resuspended in Glia medium: (Minimun Essential Medium with Earl's salts (GIBCO), D-(+)-Glucose 20% (Sigma), Penicillin-streptomycin (GIBCO), 10% Horse Serum (GIBCO)) and plated at the concentration of 80,000 cells per mL in T75 flasks (Falcon). After the glia reached confluency, they were replated onto Poly-D-Lysine/Laminin CultureSlides (BD biosciences).
Non-transgenic glia were individually pretreated for 1 day with either one of the three cytokines MCP2, Cxc17, or Rantes; with GMFb; an agonist of SHH pathway; or with PGD2.
In the case of Rantes, the “number of GFP positive motor neurons compared to the control condition” value (from here on “number … compared to the control condition”) is reported as 108%+/−20%. With `CCCCC[C@H](O)/C=C/[C@H]1C(=O)C[C@H](O)[C@@H]1C/C=C\CCCC(=O)O` [PGD2, prostaglandin D2] the “number … compared to the control condition” value was 19%+/−2%. In the case of `CNC1CCC(N(Cc2cccc(-c3ccncc3)c2)C(=O)c2sc3ccccc3c2Cl)CC1` (stereo not drawn) [SHH agonist], the “number … compared to the control condition” value is reported as 97%+/−12%. In the case of B1, the “number … compared to the control condition” value is reported as 95%+/−9%. In the case of B2, the “number … compared to the control condition” value is reported as 103%+/−8%.

The molecules below were run on Hb9::GFP human ES cell-derived motor neurons (assay: not given). Details: SOD1G93A glia pretreated 1 day, MK 0524 10 μM, 20 days; p<0.05; n=3.
Experimental: as §1
After 24 hours, the cells had aggregated to form embryoid bodies (EBs), and the media was changed to remove debris by centrifuging the EBs and resuspending in fresh in human ES cell media without bFGF2 or plasmanate in low attachment 6-well plates. EBs were cultured as such for 13 more days, with half of the media changed every two days, and a complete media change every week. After 14 days, the EBs were induced toward a caudal and ventral identity using retinoic acid (1 μM, Sigma) and an agonist of the Shh signaling pathway (1 μM) in N2 media: 1:1 DMEM:F-12+Glutamate (Gibco), 10,000 units Penicillin and 1 mg/mL Streptomicin (Gibco), 1% N2 Supplement (Gibco), 0.2 mM ascorbic acid (Sigma-Aldrich), 0.16% D-(+)-Glucose (Sigma-Aldrich), BDNF (10 ng/ml, R&D Systems), for another 14 days. […] These cells were then counted and plated on Poly-D-Lysine/Laminin CultureSlides (BD biosciences) or on a layer of primary glial cells. Depending on the experiment, motor neurons or interneurons were counted 10 or 20 days after plating. […]
`CS(=O)(=O)c1cc(F)cc2c3c(n(Cc4ccc(Cl)cc4)c12)[C@@H](CC(=O)O)CC3` [MK 0524] was tested, and the “increase in the number of GFP positive neurons relative to untreated neurons plated on the same glia” value was 32%.
